The target of data set [1] is T1, Tyrosine-protein phosphatase non-receptor type 1 (Homo sapiens, UniProt P18031).
T1 sequence (P18031 whole entry): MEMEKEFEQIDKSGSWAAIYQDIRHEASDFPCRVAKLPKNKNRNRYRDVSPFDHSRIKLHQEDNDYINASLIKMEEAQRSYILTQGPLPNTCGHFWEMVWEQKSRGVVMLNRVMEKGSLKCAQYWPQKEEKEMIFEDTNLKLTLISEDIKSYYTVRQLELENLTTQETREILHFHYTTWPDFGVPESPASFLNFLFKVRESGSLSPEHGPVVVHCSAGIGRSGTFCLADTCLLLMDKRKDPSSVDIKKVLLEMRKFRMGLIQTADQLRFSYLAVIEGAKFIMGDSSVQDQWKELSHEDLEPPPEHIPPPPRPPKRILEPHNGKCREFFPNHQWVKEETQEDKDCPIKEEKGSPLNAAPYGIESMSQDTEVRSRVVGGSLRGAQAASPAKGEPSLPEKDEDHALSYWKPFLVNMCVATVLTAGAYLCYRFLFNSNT
As to the kind of experiment: Inhibition of recombinant human PTP1B (1 to 321 residues) expressed in Escherichia coli using p-nitrophenyl phosphate as substrate incubated for 30 mins.

A short description of data set [2]: Inhibition of alpha-Glucosidase (unknown origin) using pNPG as substrate incubated for 30 mins. Further details: species or system Homo sapiens.
The target of data set [3] is T2, Tyrosine-protein phosphatase non-receptor type 1 (Homo sapiens) (UniProt P18031).
T2 sequence (whole entry): T1 sequence (P18031 whole entry)
As to the kind of experiment: Inhibition of recombinant human PTP1B (1 to 321 residues) expressed in Escherichia coli at 10 uM using p-nitrophenyl phosphate as substrate incubated for 30 mins relative to control.

For data set [4], the species on record is Homo sapiens. As to the kind of experiment: Inhibition of alpha-Glucosidase (unknown origin) at 10 uM using pNPG as substrate incubated for 30 mins relative to control.
Data set [5] in a line: Cytotoxicity against human insulin resistant HepG2 cells assessed as cell viability at 10 uM by CCK8 assay relative to control. The class given is cell-based. To be noted: read-out: Activity. (In general: Formazan colour is commonly taken as a measure of viable cells.)
The test system of data set [6] is HepG2. As to the kind of experiment: Induction of glucose uptake in human insulin resistant HepG2 cells at 10 uM incubated for 24 hrs by GOD-POD method relative to control. The class given is functional.
Data set [7] concerns HepG2. As to the kind of experiment: Induction of glucose uptake in human insulin resistant HepG2 cells at 500 uM incubated for 24 hrs by GOD-POD method relative to control. It is filed as functional, cell-based.

Molecules are shown by their SMILES. The source made the active and inactive calls. The rule behind the calls is not given here. Where only a bound is given, the exact number is not on record here.

Turning to `COc1c(CC=C(C)C)c(O)cc2c1-c1oc3cc(O)ccc3c1CO2`, the figures for the IC50 in data set [1] and in data set [2] were 8.3 µM and 0.3 µM, respectively. Further, the inhibition in data set [3] was above 60%; in data set [4], above 40%. The viability at 10 µM in data set [5] was 80 to 110%. The compound further registered an Activity in data set [6] above 80%.

With `COc1cc2c(c(O)c1CC=C(C)C)C(=O)[C@H](c1ccc(O)cc1)CO2`, the inhibition is above 60% in data set [3] and above 40% in data set [4]. In addition, the viability at 10 µM in data set [5] lay in the range of 80 to 110%. The compound further had an Activity in data set [6] of 95%.

On to `CN(C)C(=N)NC(=N)N`, for which the outcome in data set [7] was Active.

As for `O=c1c(-c2ccc(O)cc2)coc2cc(O)ccc12` [DAIDZEIN], the results for the inhibition in data set [3] and in data set [4] were above 60% and above 40%, respectively. In addition, in data set [5], the viability at 10 µM fell in the range of 80 to 110%. The compound further displayed an Activity in data set [6] above 80%.

For `O=c1c(O)c(-c2ccc(O)cc2)oc2cc(O)cc(O)c12` [KAEMPFEROL], the inhibition in data set [3] is above 60%; in data set [4], above 40%. The viability at 10 µM in data set [5] is 80 to 110%. Further, the Activity in data set [6] is recorded as above 80%.

Usually IC50 stands for the concentration that gives 50% inhibition. By inhibition is commonly meant the share of the control response that was lost under treatment.

These data come from ChEMBL document CHEMBL4610094, “Prenylated Phenolic Compounds from the Aerial Parts of Glycyrrhiza uralensis as PTP1B and α-Glucosidase Inhibitors” (J Nat Prod, 2020).
